Data from ChEMBL document CHEMBL1201862, “PubChem BioAssay data set” (2004).
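Interpolation was linear, between the two tested concentrations surrounding the appropriate level; five concentrations were tested over 48 hours in 96-well plates. GI50 = concentration required for 50% inhibition of growth.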 Active and inactive are the calls of the source. No stated cut-off is given here; in the data, active = GI50 up to about 1.1 µM and inactive = higher.

Experiments:
Test in all cases: inhibition of tumour cell growth, NCI panel, 48 h
[1] = test system: A549
[2] = test system: DU-145
[3] = test system: EKVX
[4] = test system: HL-60
[5] = test system: Hs-578T
[6] = test system: KM12
[7] = test system: LOX IMVI
[8] = test system: MCF7
[9] = test system: MDA-MB-231
[10] = test system: MOLT-4
[11] = test system: RPMI-8226
[12] = test system: SF-268
[13] = test system: SF-539
[14] = test system: SK-MEL-2
[15] = test system: SN12C
[16] = test system: SR
[17] = test system: SW-620
[18] = test system: T47D
[19] = test system: UACC-62
[20] = test system: UO-31

With COc1ccc(/N=C\c2ccc(N(CCC#N)CCC#N)cc2)cc1 the GI50 [1] was 47.9 µM (inactive), the GI50 [2] was > 100 µM (inactive) and the GI50 [3] was > 100 µM (inactive). For the same molecule, the GI50 [4] was 22.3 µM (inactive), the GI50 [5] was > 100 µM (inactive) and the GI50 [6] was 17.1 µM (inactive). The GI50 [7] was > 28.9 µM (inactive), the GI50 [8] was > 100 µM (inactive) and the GI50 [9] was > 100 µM (inactive). The GI50 [10] was 66.5 µM (inactive), the GI50 [11] was 59 µM (inactive) and the GI50 [12] was 53.2 µM (inactive). The GI50 [13] was 27.9 µM (inactive), the GI50 [14] was > 67.1 µM (inactive) and the GI50 [15] was > 89.3 µM (inactive). For the same molecule, the GI50 [16] was 90.8 µM (inactive), the GI50 [17] was 61.1 µM (inactive) and the GI50 [18] was > 100 µM (inactive). For the same molecule, the GI50 [19] was 16.6 µM (inactive) and the GI50 [20] was 44.5 µM (inactive).

For COc1cc(/C=C/c2sc3ccccc3[n+]2C)ccc1N(C)C, the GI50 [1] was 5.98 µM (inactive), the GI50 [2] was 13.6 µM (inactive) and the GI50 [3] was 21.8 µM (inactive). For the same molecule, the GI50 [4] was 6.85 µM (inactive), the GI50 [5] was 41.3 µM (inactive) and the GI50 [6] was 3.62 µM (inactive). For the same molecule, the GI50 [7] was 15.8 µM (inactive), the GI50 [8] was 4.45 µM (inactive) and the GI50 [9] was 6.14 µM (inactive). The GI50 [10] was 4.55 µM (inactive), the GI50 [11] was 2.21 µM (inactive) and the GI50 [12] was 13.8 µM (inactive). The GI50 [13] was 17.3 µM (inactive), the GI50 [14] was 2.32 µM (inactive) and the GI50 [15] was 12.9 µM (inactive). The GI50 [16] was 1.94 µM (inactive), the GI50 [17] was 5.07 µM (inactive) and the GI50 [18] was 3.21 µM (inactive). For the same molecule, the GI50 [19] was 5.26 µM (inactive) and the GI50 [20] was < 0.01 µM (active).

With CC(=O)OCC1OC(NC(=S)Nn2c(-c3ccccc3)nc3ccccc3c2=O)C(OC(C)=O)C(OC(C)=O)C1OC(C)=O (stereo not given) the GI50 [1] was > 100 µM (inactive), the GI50 [2] was > 100 µM (inactive) and the GI50 [3] was > 100 µM (inactive). For the same molecule, the GI50 [4] was 70.8 µM (inactive), the GI50 [5] was 78.7 µM (inactive) and the GI50 [6] was > 100 µM (inactive). For the same molecule, the GI50 [7] was > 100 µM (inactive), the GI50 [8] was 85.9 µM (inactive) and the GI50 [9] was 81.5 µM (inactive). The GI50 [10] was 46.9 µM (inactive), the GI50 [11] was > 100 µM (inactive) and the GI50 [12] was > 100 µM (inactive). For the same molecule, the GI50 [13] was 37.8 µM (inactive), the GI50 [14] was 25.9 µM (inactive) and the GI50 [15] was 93.1 µM (inactive). The GI50 [16] was 35.6 µM (inactive), the GI50 [17] was > 100 µM (inactive) and the GI50 [18] was 19.4 µM (inactive). For the same molecule, the GI50 [19] was 51.5 µM (inactive) and the GI50 [20] was > 100 µM (inactive).

For COc1cc2c3c(c1)CCCN3CCC2, the GI50 [1] was > 10 µM (inactive), the GI50 [2] was > 10 µM (inactive) and the GI50 [3] was > 10 µM (inactive). The GI50 [4] was > 10 µM (inactive), the GI50 [5] was > 10 µM (inactive) and the GI50 [6] was > 10 µM (inactive). The GI50 [7] was > 10 µM (inactive), the GI50 [8] was > 10 µM (inactive) and the GI50 [9] was > 10 µM (inactive). For the same molecule, the GI50 [10] was > 10 µM (inactive), the GI50 [11] was > 10 µM (inactive) and the GI50 [12] was > 10 µM (inactive). For the same molecule, the GI50 [13] was > 10 µM (inactive), the GI50 [14] was > 10 µM (inactive) and the GI50 [15] was > 10 µM (inactive). The GI50 [16] was > 10 µM (inactive), the GI50 [17] was > 10 µM (inactive) and the GI50 [18] was > 10 µM (inactive). For the same molecule, the GI50 [19] was > 10 µM (inactive) and the GI50 [20] was > 10 µM (inactive).

For C=C1C(=O)OC2C1C(OC(=O)/C(C)=C/C)CC1(C)C(=O)CCC(=C)C21 (stereo not given), the GI50 [1] was 19.2 µM (inactive), the GI50 [2] was 8.07 µM (inactive) and the GI50 [3] was 16.3 µM (inactive). The GI50 [4] was 1.89 µM (inactive), the GI50 [5] was 27.8 µM (inactive) and the GI50 [6] was 16.4 µM (inactive). The GI50 [7] was 3.94 µM (inactive), the GI50 [8] was 4.49 µM (inactive) and the GI50 [9] was 17.9 µM (inactive). For the same molecule, the GI50 [10] was 2.77 µM (inactive), the GI50 [11] was 1.95 µM (inactive) and the GI50 [12] was 10.7 µM (inactive). The GI50 [13] was 11.3 µM (inactive), the GI50 [14] was 11.9 µM (inactive) and the GI50 [15] was 2.15 µM (inactive). For the same molecule, the GI50 [16] was 2.06 µM (inactive), the GI50 [17] was 2.93 µM (inactive) and the GI50 [18] was 13.1 µM (inactive). For the same molecule, the GI50 [19] was 8.47 µM (inactive) and the GI50 [20] was 6.55 µM (inactive).

Cl/C(=C\C=N\c1ccc(I)cc1)c1ccc2ccccc2c1 was tested, and the GI50 [1] was 33.3 µM (inactive), the GI50 [2] was 21.4 µM (inactive) and the GI50 [3] was 36.2 µM (inactive). For the same molecule, the GI50 [4] was 12.9 µM (inactive), the GI50 [5] was 28.4 µM (inactive) and the GI50 [6] was 13.1 µM (inactive). For the same molecule, the GI50 [7] was 8.53 µM (inactive), the GI50 [8] was 23.2 µM (inactive) and the GI50 [9] was 14.5 µM (inactive). The GI50 [10] was 5.13 µM (inactive), the GI50 [11] was 17.3 µM (inactive) and the GI50 [12] was 20.7 µM (inactive). For the same molecule, the GI50 [13] was 19.9 µM (inactive), the GI50 [14] was 18.9 µM (inactive) and the GI50 [15] was 17.9 µM (inactive). The GI50 [16] was 3.91 µM (inactive), the GI50 [17] was 19.1 µM (inactive) and the GI50 [18] was 10.4 µM (inactive). The GI50 [19] was 8.83 µM (inactive) and the GI50 [20] was 17.5 µM (inactive).

For CN(Cc1cc(C(C)(C)C)cc(Br)c1O)Cc1cc(C(C)(C)C)cc(Br)c1O, the GI50 [1] was 3.52 µM (inactive), the GI50 [2] was 6.1 µM (inactive) and the GI50 [3] was 3.83 µM (inactive). For the same molecule, the GI50 [4] was 4.2 µM (inactive), the GI50 [5] was 2.65 µM (inactive) and the GI50 [6] was 2.52 µM (inactive). For the same molecule, the GI50 [7] was 3.77 µM (inactive), the GI50 [8] was 1.56 µM (inactive) and the GI50 [9] was 2.15 µM (inactive). The GI50 [10] was 3.21 µM (inactive), the GI50 [11] was 2.01 µM (inactive) and the GI50 [12] was 3.66 µM (inactive). The GI50 [13] was 2.74 µM (inactive), the GI50 [14] was 2.02 µM (inactive) and the GI50 [15] was 4.19 µM (inactive). The GI50 [16] was 2.86 µM (inactive), the GI50 [17] was 3.48 µM (inactive) and the GI50 [18] was 3.5 µM (inactive). The GI50 [19] was 3.13 µM (inactive) and the GI50 [20] was 3.61 µM (inactive).

With c1ccc(CCCCNCc2cc(CNCCCCc3ccccc3)cc(CNCCCCc3ccccc3)c2)cc1 the GI50 [1] was 0.263 µM (active), the GI50 [2] was 0.762 µM (active) and the GI50 [3] was 1.64 µM (inactive). For the same molecule, the GI50 [4] was 0.226 µM (active), the GI50 [5] was 1.5 µM (inactive) and the GI50 [6] was 0.544 µM (active). The GI50 [7] was 0.308 µM (active), the GI50 [8] was 0.178 µM (active) and the GI50 [9] was 1.61 µM (inactive). The GI50 [10] was 0.251 µM (active), the GI50 [11] was 0.16 µM (active) and the GI50 [12] was 1.53 µM (inactive). For the same molecule, the GI50 [13] was 0.8 µM (active), the GI50 [14] was 1.82 µM (inactive) and the GI50 [15] was 3.63 µM (inactive). For the same molecule, the GI50 [16] was 0.216 µM (active), the GI50 [17] was 0.301 µM (active) and the GI50 [18] was 1.79 µM (inactive). The GI50 [19] was 1.76 µM (inactive) and the GI50 [20] was 0.261 µM (active).

With CCOC(=O)NC(C(=O)OCC)(N1CCN(c2cc3c(cc2F)c(=O)c(C(=O)O)cn3CC)CC1)C(F)(F)F (stereo not given) the GI50 [1] was > 100 µM (inactive), the GI50 [2] was > 100 µM (inactive) and the GI50 [3] was 13.2 µM (inactive). For the same molecule, the GI50 [4] was > 100 µM (inactive), the GI50 [5] was > 100 µM (inactive) and the GI50 [6] was > 100 µM (inactive). For the same molecule, the GI50 [7] was > 100 µM (inactive), the GI50 [8] was > 100 µM (inactive) and the GI50 [9] was > 100 µM (inactive). For the same molecule, the GI50 [10] was > 100 µM (inactive), the GI50 [11] was > 100 µM (inactive) and the GI50 [12] was > 100 µM (inactive). For the same molecule, the GI50 [13] was > 100 µM (inactive), the GI50 [14] was > 100 µM (inactive) and the GI50 [15] was > 100 µM (inactive). The GI50 [16] was > 100 µM (inactive), the GI50 [17] was > 100 µM (inactive) and the GI50 [18] was > 100 µM (inactive). The GI50 [19] was > 100 µM (inactive) and the GI50 [20] was > 100 µM (inactive).

For CC(C)c1cc2c(cc1S(=O)(=O)O)[C@@]1(C)CCC[C@@](C)(C(=O)O)C1CC2 (stereo not given in full), the GI50 [1] was > 100 µM (inactive), the GI50 [2] was > 100 µM (inactive) and the GI50 [3] was > 100 µM (inactive). The GI50 [4] was > 100 µM (inactive), the GI50 [5] was > 100 µM (inactive) and the GI50 [6] was > 100 µM (inactive). The GI50 [7] was > 100 µM (inactive), the GI50 [8] was > 100 µM (inactive) and the GI50 [9] was > 100 µM (inactive). The GI50 [10] was > 100 µM (inactive), the GI50 [11] was > 100 µM (inactive) and the GI50 [12] was > 100 µM (inactive). The GI50 [13] was > 100 µM (inactive), the GI50 [14] was > 100 µM (inactive) and the GI50 [15] was > 100 µM (inactive). For the same molecule, the GI50 [16] was > 100 µM (inactive), the GI50 [17] was > 100 µM (inactive) and the GI50 [18] was > 100 µM (inactive). For the same molecule, the GI50 [19] was > 100 µM (inactive) and the GI50 [20] was > 100 µM (inactive).
